Experimental data as given in patent US20260167656A1, “PHOSPHORAMIDATE COMPOUNDS AND USES THEREOF” (ALLORION THERAPEUTICS INC, priority 2022, published 2026).

Columns and labels:
[1] = system: non-small cell lung cancer cell line H460; test: In vitro human cancer cell line cytotoxicity (proliferation) assay in H460, CellTiter-Glo, 72 hours; type: cell-based; conditions: H460 cells, DMSO condition (no AKR1C3 inhibitor), read-out: CTG H460: Avg IC50 (nM) [Assay Condition: DMSO]
How it was run: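 H460 cells were seeded at 3×10^3 per well and grown 24 h at 37 °C, 5% CO2 before compound addition from 10 mM DMSO stocks. After 72 h further incubation, viability was measured by CellTiter-Glo, and IC50 values in nM were derived from the proliferation data.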

[2] = system: non-small cell lung cancer cell line H460; test: H460 proliferation assay in the presence of 3 uM ASP9521 (AKR1C3 specific inhibitor); type: cell-based, human; conditions: H460 cells, CellTiter-Glo, 72 hours, in the presence of 3 uM ASP9521 added 4 hours prior to compounds; read-out: CTG H460: Avg IC50 (nM) [Assay Condition: ASP9521]
How it was run: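 H460 cells pre-incubated 24 h, then exposed to compounds for 72 h at 37 °C, 5% CO2. Viability read by CellTiter-Glo. ASP9521 (3 uM, AKR1C3 inhibitor) added 4 h before compounds.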

SMILES	IC50 [1]	IC50 [2]	IC50 ([1]; Homo sapiens, NCI-H460, 72 h)
O=[N+]([O-])c1cc2c(cc1Oc1ccc(-c3cccnc3)cc1)C(OP(=O)(N1CC1)N1CC1)CC2 (stereo not shown) [Example 515]	10 to 50 nM	7150 nM	
O=C(NC1CCC1)c1ccc(Oc2cc3c(cc2[N+](=O)[O-])CCC3OP(=O)(N2CC2)N2CC2)cc1 (stereo not shown) [Example 516]	< 10 nM	778 nM	
O=[N+]([O-])c1cc2c(cc1Oc1ccc(-c3ccccn3)cc1)C(OP(=O)(N1CC1)N1CC1)CC2 (stereo not shown) [Example 517]	< 10 nM	2050 nM	
O=[N+]([O-])c1cc2c(cc1Oc1ccc(-c3ccccc3)nc1)C(OP(=O)(N1CC1)N1CC1)CC2 (stereo not shown) [Example 518]	< 10 nM	746 nM	
O=[N+]([O-])c1cc2c(cc1Oc1ccc(-c3ccccn3)cc1)C(OP(=O)(N1CC1)N1CC1)CC2 (stereo not shown) [Example 523]	< 10 nM	2070 nM	
O=[N+]([O-])c1cc2c(cc1Oc1ccc(-c3ccccn3)cc1)C(OP(=O)(N1CC1)N1CC1)CC2 (stereo not shown) [Example 524]	< 10 nM	1190 nM	
O=C(NC1CCC1)c1ccc(Oc2cc3c(cc2[N+](=O)[O-])CC[C@H]3OP(=O)(N2CC2)N2CC2)cc1 [Example 526]	< 10 nM	661 nM	
O=[N+]([O-])c1cc2c(cc1Oc1ccc(-c3ccccc3)nc1)[C@@H](OP(=O)(N1CC1)N1CC1)CC2 [Example 527]	< 10 nM	1090 nM	
O=[N+]([O-])c1cc2c(cc1Oc1ccc(-c3ccccc3)nc1)[C@H](OP(=O)(N1CC1)N1CC1)CC2 [Example 528]	< 10 nM	880 nM	
O=C(c1cccc(Oc2cc3cc(COP(=O)(N4CC4)N4CC4)oc3cc2[N+](=O)[O-])c1)N1CCCC1 [Example 530, (6-nitro-5-(3-(pyrrolidine-1-carbonyl)phenoxy)benzofuran-2-yl)methyl di(aziridin-1-yl)phosphinate]		697 nM	< 10 nM
O=[N+]([O-])c1cc2oc(COP(=O)(N3CC3)N3CC3)cc2cc1Oc1cccc(-c2ccccc2)c1 [Example 534]		1200 nM	< 10 nM
O=C(c1cccc(Oc2cc3cc(COP(=O)(N4CC4)N4CC4)oc3cc2[N+](=O)[O-])c1)N1CCC1 [Example 535]		378 nM	< 10 nM
O=[N+]([O-])c1cc2oc(COP(=O)(N3CC3)N3CC3)cc2cc1Oc1cccc(-c2ccccn2)c1 [Example 536]		651 nM	< 10 nM
O=[N+]([O-])c1cc2oc(COP(=O)(N3CC3)N3CC3)cc2cc1Oc1cccc(-c2cccnc2)c1 [Example 537]		3710 nM	< 10 nM
O=[N+]([O-])c1cc2oc(COP(=O)(N3CC3)N3CC3)cc2cc1Oc1ccnc(-c2ccccc2)c1 [Example 538]		711 nM	< 10 nM
CNC(=O)c1cccc(Oc2cc3cc(C(C)OP(=O)(N4CC4)N4CC4)oc3cc2[N+](=O)[O-])c1 (stereo not shown) [Example 539]		2730 nM	< 10 nM
O=[N+]([O-])c1cc2oc(COP(=O)(N3CC3)N3CC3)cc2cc1Oc1ccc(-c2cccnc2)cc1 [Example 540]		1830 nM	< 10 nM
O=[N+]([O-])c1cc2oc(COP(=O)(N3CC3)N3CC3)cc2cc1Oc1cccc(OC(F)(F)F)c1 [Example 542]	< 10 nM	963 nM	
CC(OP(=O)(N1CC1)N1CC1)c1cc2cc(Oc3cccc(-c4ccccn4)c3)c([N+](=O)[O-])cc2o1 (stereo not shown) [Example 543]	< 10 nM	2230 nM	
CC(OP(=O)(N1CC1)N1CC1)c1cc2cc(Oc3cccc(C(=O)N4CCOCC4)c3)c([N+](=O)[O-])cc2o1 (stereo not shown) [Example 544]	10 to 50 nM	3490 nM	
O=C(c1cccc(Oc2cc3cc(COP(=O)(N4CC4)N4CC4)oc3cc2[N+](=O)[O-])c1)N1CCC(F)(F)C1 [Example 545]	< 10 nM	970 nM	
CC(OP(=O)(N1CC1)N1CC1)c1cc2cc(Oc3ccc4c(c3)OC(F)(F)O4)c([N+](=O)[O-])cc2o1 (stereo not shown) [Example 546]		4690 nM	< 10 nM

SMILES	IC50 [1]	IC50 [2]	IC50 ([1]; Homo sapiens, NCI-H460, 72 h)
CC(C)Oc1cccc(Oc2cc3cc(COP(=O)(N4CC4)N4CC4)oc3cc2[N+](=O)[O-])c1 [Example 547]	< 10 nM	1260 nM	
CC(OP(=O)(N1CC1)N1CC1)c1cc2cc(Oc3cccc(C(=O)N4CCC(F)(F)CC4)c3)c([N+](=O)[O-])cc2o1 (stereo not shown) [Example 548]	< 10 nM	2140 nM	
CC(OP(=O)(N1CC1)N1CC1)c1cc2cc(Oc3cccc(C(=O)N4CCC4)c3)c([N+](=O)[O-])cc2o1 (stereo not shown) [Example 549]	10 to 50 nM	5130 nM	
C[C@@H](OP(=O)(N1CC1)N1CC1)c1cc2cc(Oc3ccc4c(c3)OC(F)(F)O4)c([N+](=O)[O-])cc2o1 [Example 550]		2510 nM	< 10 nM
C[C@H](OP(=O)(N1CC1)N1CC1)c1cc2cc(Oc3ccc4c(c3)OC(F)(F)O4)c([N+](=O)[O-])cc2o1 [Example 551]		2600 nM	< 10 nM
C[C@H](OP(=O)(N1CC1)N1CC1)c1cc2cc(Oc3cccc(C(=O)N4CC(F)(F)C4)c3)c([N+](=O)[O-])cc2o1 [Example 552]	10 to 50 nM	5870 nM	
C[C@@H](OP(=O)(N1CC1)N1CC1)c1cc2cc(Oc3cccc(-c4ccccn4)c3)c([N+](=O)[O-])cc2o1 [Example 553]	10 to 50 nM	2950 nM	
C[C@H](OP(=O)(N1CC1)N1CC1)c1cc2cc(Oc3cccc(-c4ccccn4)c3)c([N+](=O)[O-])cc2o1 [Example 554]	< 10 nM	6070 nM	
O=[N+]([O-])c1cc2oc(COP(=O)(N3CC3)N3CC3)cc2cc1Oc1cccc(C2CC2)c1 [Example 555]	< 10 nM	1490 nM	
O=C(c1cccc(Oc2cc3cc(COP(=O)(N4CC4)N4CC4)oc3cc2[N+](=O)[O-])c1)N1CCOCC1 [Example 556]	< 10 nM	1060 nM	
C[C@H](OP(=O)(N1CC1)N1CC1)c1cc2cc(Oc3cccc(C(=O)N4CCOCC4)c3)c([N+](=O)[O-])cc2o1 [Example 557]	10 to 50 nM	7310 nM	
C[C@H](OP(=O)(N1CC1)N1CC1)c1cc2cc(Oc3cccc(C(=O)N4CCC(F)(F)C4)c3)c([N+](=O)[O-])cc2o1 [Example 558]	10 to 50 nM	3960 nM	
C[C@@H](OP(=O)(N1CC1)N1CC1)c1cc2cc(Oc3cccc(C(=O)N4CCC4)c3)c([N+](=O)[O-])cc2o1 [Example 559]	10 to 50 nM	7000 nM	
C[C@@H](OP(=O)(N1CC1)N1CC1)c1cc2cc(Oc3cccc(C4CC4)c3)c([N+](=O)[O-])cc2o1 [Example 561]	10 to 50 nM	4230 nM	
C[C@H](OP(=O)(N1CC1)N1CC1)c1cc2cc(Oc3cccc(C4CC4)c3)c([N+](=O)[O-])cc2o1 [Example 562]	< 10 nM	3040 nM	
C[C@H](OP(=O)(N1CC1)N1CC1)c1cc2cc(Oc3cccc(C(=O)N4CCC(F)(F)CC4)c3)c([N+](=O)[O-])cc2o1 [Example 563]	< 10 nM	2110 nM	
C[C@@H](OP(=O)(N1CC1)N1CC1)c1cc2cc(Oc3ccc4c(c3)CN(C)C4=O)c([N+](=O)[O-])cc2o1 [Example 564]	10 to 50 nM	2690 nM	
C[C@H](OP(=O)(N1CC1)N1CC1)c1cc2cc(Oc3ccc4c(c3)CN(C)C4=O)c([N+](=O)[O-])cc2o1 [Example 565]	10 to 50 nM	5930 nM	
C[C@@H](OP(=O)(N1CC1)N1CC1)c1cc2cc(Oc3cccc(C(=O)N(C)C)c3)c([N+](=O)[O-])cc2o1 [Example 566]	10 to 50 nM	6380 nM	
C[C@@H](OP(=O)(N1CC1)N1CC1)c1cc2cc(Oc3cncc(-c4ccccc4)c3)c([N+](=O)[O-])cc2o1 [Example 567]	< 10 nM	2110 nM	
C[C@H](OP(=O)(N1CC1)N1CC1)c1cc2cc(Oc3cncc(-c4ccccc4)c3)c([N+](=O)[O-])cc2o1 [Example 568]	< 10 nM	1920 nM	
CN1Cc2ccc(Oc3cc4cc(COP(=O)(N5CC5)N5CC5)oc4cc3[N+](=O)[O-])cc2C1=O [Example 569]	< 10 nM	937 nM	
